Source: BigSolDB 2.1

O.O=C([O-])[C@H](O)[C@@H](O)[C@H](O)[C@H](O)CO.O=C([O-])[C@H](O)[C@@H](O)[C@H](O)[C@H](O)CO.[Ca+2]
solubility (mole fraction)
Conditions | in acetonitrile | in ethanol | in methanol | in n-propanol | in water
279.15 K | 4.28e-06 | 9.52e-06 | 1.15e-05 | 5.01e-06 | –
279.65 K | – | – | – | – | 0.000997
283.15 K | 4.56e-06 | 1.06e-05 | 1.26e-05 | 5.83e-06 | –
284.65 K | – | – | – | – | 0.00108
288.15 K | 5.33e-06 | 1.29e-05 | 1.46e-05 | 7.78e-06 | –
289.15 K | – | – | – | – | 0.0012
293.15 K | 7.75e-06 | 1.51e-05 | 1.77e-05 | 1.04e-05 | –
294.15 K | – | – | – | – | 0.00129
298.15 K | 1.02e-05 | 1.73e-05 | 1.95e-05 | 1.33e-05 | –
299.15 K | – | – | – | – | 0.00146
303.15 K | 1.24e-05 | 1.99e-05 | 2.34e-05 | 1.62e-05 | 0.00165
308.15 K | – | – | – | – | 0.00199
308.65 K | 1.64e-05 | 2.32e-05 | 2.65e-05 | – | –
313.15 K | – | – | – | – | 0.00227
313.65 K | 1.99e-05 | 2.75e-05 | 2.99e-05 | – | –
318.15 K | 2.39e-05 | 3.04e-05 | 3.5e-05 | – | 0.00269
323.15 K | – | – | – | – | 0.00311
